Experimental data as given in PMC7911889 (Viruses, 2021).
pEC50: −log10 of the molar value. Read-outs that look alike come from different tables or passages of the source. Non-standard residues stand in square brackets, D forms with d. Residues, ends and D or L forms follow the SMILES beside them. *: point of attachment. Nva = CCC[C@H](N)C(=O)O; Cbz = O=C(OCc1ccccc1)*

Key:
in vitro = details: human
SARS-CoV-2 = system: SARS-CoV-2; set-up: method as in per compound as in References column of Table 1; details: read-out: Reported EC50 for inhibition of SARS-CoV-2 replication in cell culture; cited from earlier work
cell culture = details: cited from earlier work
[1] = system: 293T human embryonic kidney cells
[2] = read-out: CC50, CellTiter-Glo 2.0 assay, transfected 293T cells, 30 h post-transfection
[3] = transfected 293T cells (human embryonic kidney)

Question: Which CC50 (in vitro) does the source give for `O=c1cc(-c2ccccc2)oc2cc(O)c(O)c(O)c12` [Baicalein] here?
Answer: > 100 µM

Question: Which results are given for `COc1ccc2cc(-c3cc(-c4cc(Cl)cc(Cl)c4)nn3[C@@H](C)c3ccc(C(=O)NCCC(=O)O)cc3)ccc2c1` [MK 0893]?
Answer: pEC50 (SARS-CoV-2): 5.49; CC50 (in vitro): 42.3 µM; Reported CC50 (corresponding to reported EC50) (cell culture): 12.6 µM

Question: Which CC50 (in vitro) does the source give for `O=c1c2ccccc2[se]n1-c1ccccc1` [Ebselen] here?
Answer: 8 µM

Question: Which CC50 (in vitro) does the source give for `CC(C)(C)NC(=O)[C@@H]1C[C@@H]2CCCC[C@@H]2CN1C[C@@H](O)[C@H](Cc1ccccc1)NC(=O)[C@H](CC(N)=O)NC(=O)c1ccc2ccccc2n1` [Saquinavir] here?
Answer: 27.3 µM

Question: For `CC(C)C[C@H](NC(=O)OCc1ccccc1)C(=O)N[C@@H](CC1CCNC1=O)C(O)S(=O)(=O)O` (stereo partly drawn) [GC376], which CC50 [1] is on record?
Answer: > 100 µM

Question: What about the pEC50 (SARS-CoV-2) of the same molecule?
Answer: 5.35 to 6.70

Question: With `O=C1C(Cl)=C(NCCN2CCOCC2)C(=O)c2ncccc21` [DA-3003-1] as the molecule, how does the CC50 [1, 2] read?
Answer: 7.7 µM

Question: And the “Reported CC50 (corresponding to reported EC50)” value (“Reported CC50” for short) (cell culture)?
Answer: 7.7 µM

Question: With `CC(C)CN(C[C@@H](O)[C@H](Cc1ccccc1)NC(=O)O[C@H]1CCOC1)S(=O)(=O)c1ccc(N)cc1` [Amprenavir] as the molecule, how does the CC50 at 30 h post-transfection (in vitro) read?
Answer: > 100 µM

Question: Which results are given for `CCCC(NC(=O)C(CC(C)C)NC(=O)OCc1ccccc1)C(=O)C(=O)NCc1ccccn1` (stereo not drawn) [Calpain Inhibitor XII]?
Answer: CC50 [1]: > 100 µM; Reported CC50 (corresponding to reported EC50) (cell culture): >100 µM

Question: With `CC(NC(=O)[C@H](Cc1ccccc1)NC(=O)OCc1ccccc1)C(=O)CF` (stereo partly drawn) [Z-FA-FMK] as the molecule, how does the CC50 [1, 2] read?
Answer: > 100 µM

Question: What about the “Reported CC50” value (cell culture) of the same molecule?
Answer: >20 µM

Question: For `C=C[C@@H]1C[C@]1(NC(=O)[C@@H]1C[C@@H](Oc2ncc(OC)c3ccc(Cl)cc23)CN1C(=O)[C@@H](NC(=O)OC(C)(C)C)C(C)(C)C)C(=O)NS(=O)(=O)C1CC1` [Asunaprevir], which CC50 (in vitro) is on record?
Answer: 31.5 µM

Question: What does the source list for GRL-0496?
Answer: CC50 [1]: 53.2 µM; pEC50 (SARS-CoV-2): 5.04; Reported CC50 (corresponding to reported EC50) (cell culture): 81.0 µM

Question: Which results are given for `O.O=C(OC[C@H]1O[C@@H](OC(=O)c2cc(O)c(O)c(O)c2)[C@H](OC(=O)c2cc(O)c(O)c(O)c2)[C@@H](OC(=O)c2cc(O)c(O)c(O)c2)[C@@H]1OC(=O)c1cc(O)c(O)c(O)c1)c1cc(O)c(O)c(O)c1` [penta-O-galloyl-beta-D-glucose hydrate]?
Answer: CC50 [1]: 30.4 µM; Reported CC50 (corresponding to reported EC50) (cell culture): 11.2 µM

Question: For `CCN(CC)CCCC(C)Nc1c2ccc(Cl)cc2nc2ccc(OC)cc12` (stereo not drawn) [Quinacrine], which CC50 (in vitro) is on record?
Answer: 2.5 µM

Question: Which CC50 [1, 2] does the source give for `CCC[C@@H](C=O)NC(=O)[C@H](CC(C)C)NC(=O)[C@H](CC(C)C)NC(=O)OCc1ccccc1` [MG-115] (Cbz-Leu-Leu-[Nva]-aldehyde) here?
Answer: 11 µM

Question: And the “Reported CC50” value (cell culture)?
Answer: 1.1 µM

Question: With `Cc1ccc(C(=O)Nc2ccc(S(=O)(=O)O)c3cc(S(=O)(=O)O)cc(S(=O)(=O)O)c23)cc1NC(=O)c1cccc(NC(=O)Nc2cccc(C(=O)Nc3cc(C(=O)Nc4ccc(S(=O)(=O)O)c5cc(S(=O)(=O)O)cc(S(=O)(=O)O)c45)ccc3C)c2)c1` [Suramin] as the molecule, how does the pEC50 (SARS-CoV-2) read?
Answer: 4.70

Question: What about the CC50 (in vitro) of the same molecule?
Answer: > 100 µM

Question: What about the “Reported CC50” value (cell culture) of the same molecule?
Answer: >20–>5000

Question: Which results are given for `CC(C)C[C@H](NC(=O)OCc1ccccc1)C(=O)N[C@@H](C[C@@H]1CCNC1=O)C(O)S(=O)(=O)[O-].[Na+]` (stereo partly drawn) [GC376]?
Answer: Effect on cell viability (in words) [1]: no significant effect on cell viability up to 100 µM; Reported CC50 (corresponding to reported EC50) (cell culture): >100–>200

Question: For `COc1cccc2c1C(=O)c1c(O)c3c(c(O)c1C2=O)C[C@@](O)(C(=O)CO)C[C@@H]3O[C@H]1C[C@H](N)[C@H](O)[C@H](C)O1` [doxorubicin], which CC50 at 30 h post-transfection (in vitro; [3]) is on record?
Answer: 3.7 µM

Question: With `CC(C)CN(C[C@@H](O)[C@H](Cc1ccccc1)NC(=O)O[C@H]1CO[C@H]2OCC[C@H]21)S(=O)(=O)c1ccc(N)cc1` [Darunavir] as the molecule, how does the pEC50 (SARS-CoV-2) read?
Answer: 4.33

Question: Which CC50 (in vitro) does the source give for `CC(C)(C)NC(=O)[C@@H]1CN(Cc2cccnc2)CCN1C[C@@H](O)C[C@@H](Cc1ccccc1)C(=O)N[C@H]1c2ccccc2C[C@H]1O` [Indinavir] here?
Answer: > 100 µM

Question: Which results are given for `Cn1nc(-c2ccc(C(F)(F)F)cc2)nc2c(=O)n(C)c(=O)nc1-2` [Walrycin B]?
Answer: CC50 [1]: 29 µM; Reported CC50 (corresponding to reported EC50) (cell culture): 4.3 µM

Question: With `CCC[C@H](NC(=O)[C@@H]1[C@H]2CCC[C@H]2CN1C(=O)[C@@H](NC(=O)[C@@H](NC(=O)c1cnccn1)C1CCCCC1)C(C)(C)C)C(=O)C(=O)NC1CC1` [Telaprevir] as the molecule, how does the CC50 at 30 h post-transfection (in vitro; [3]) read?
Answer: 71.5 µM

Question: With `Cc1c(O)cccc1C(=O)N[C@@H](CSc1ccccc1)[C@H](O)CN1C[C@H]2CCCC[C@H]2C[C@H]1C(=O)NC(C)(C)C` [Nelfinavir] as the molecule, how does the CC50 (in vitro) read?
Answer: 11.2 µM

Question: For `CCC[C@@]1(CCc2ccccc2)CC(O)=C([C@H](CC)c2cccc(NS(=O)(=O)c3ccc(C(F)(F)F)cn3)c2)C(=O)O1` [Tipranavir], which CC50 at 30 h post-transfection (in vitro) is on record?
Answer: 85.1 µM

Question: For `COC(=O)N[C@H](C(=O)N[C@@H](Cc1ccccc1)[C@@H](O)CN(Cc1ccc(-c2ccccn2)cc1)NC(=O)[C@@H](NC(=O)OC)C(C)(C)C)C(C)(C)C` [Atazanavir], which CC50 at 30 h post-transfection (in vitro) is on record?
Answer: > 100 µM

Question: Which CC50 at 30 h post-transfection (in vitro) does the source give for `COc1ccc2c(O[C@@H]3C[C@H]4C(=O)N[C@]5(C(=O)NS(=O)(=O)C6CC6)C[C@H]5/C=C\CCCCN(C)C(=O)[C@@H]4C3)cc(-c3nc(C(C)C)cs3)nc2c1C` [Simeprevir] here?
Answer: 19.6 µM

Question: Which CC50 [1] does the source give for `CSCC[C@@H](C=O)NC(=O)[C@H](CC(C)C)NC(=O)[C@H](CC(C)C)NC(C)=O` [Calpain Inhibitor II] (Ac-Leu-Leu-Met-aldehyde) here?
Answer: > 100 µM

Question: And the “Reported CC50” value (cell culture)?
Answer: >100 µM

Question: Which CC50 [1] does the source give for `C=C[C@@H]1C[C@]1(NC(=O)[C@@H]1C[C@@H]2CN1C(=O)[C@H](C(C)(C)C)NC(=O)O[C@@H]1C[C@H]1CCCCCc1nc3ccc(OC)cc3nc1O2)C(=O)NS(=O)(=O)C1CC1` [Grazoprevir] here?
Answer: 57.4 µM

Question: With `Cc1cccc(C)c1OCC(=O)N[C@@H](Cc1ccccc1)[C@@H](O)C[C@H](Cc1ccccc1)NC(=O)[C@H](C(C)C)N1CCCNC1=O` [Lopinavir] as the molecule, how does the CC50 (in vitro) read?
Answer: 29.1 µM

Question: With `Brc1c(Br)c(Br)c2n[nH]nc2c1Br` [TBB] as the molecule, how does the “Reported CC50” value (cell culture) read?
Answer: 8.9 µM

Question: Which CC50 at 30 h post-transfection (in vitro) does the source give for `CC(C)(C)NC(=O)N[C@H](C(=O)N1C[C@H]2[C@@H]([C@H]1C(=O)NC(CC1CCC1)C(=O)C(N)=O)C2(C)C)C(C)(C)C` (stereo partly drawn) [Boceprevir] here?
Answer: > 100 µM

Question: What about the “Reported CC50” value (cell culture) of the same molecule?
Answer: >100–>200

Question: Which CC50 at 30 h post-transfection (in vitro) does the source give for `COc1cc(C)c2c(Oc3cccc(C(F)(F)F)c3)c(OC)cc(NC(C)CCCN)c2n1` (stereo not drawn) [Tafenoquine] here?
Answer: 2 µM

Question: What about the “Reported CC50” value (cell culture) of the same molecule?
Answer: 37.2 µM

Question: For `Cc1ccc(NC(=O)c2ccc(CN3CCN(C)CC3)cc2)cc1Nc1nc(-c2cccnc2)cs1` [Masitinib], which CC50 at 30 h post-transfection (in vitro; [3]) is on record?
Answer: 3 µM

Question: With `O=C(Oc1cncc(Cl)c1)c1cccs1` [MAC 5576] as the molecule, how does the CC50 [1] read?
Answer: > 100 µM

Question: What about the “Reported CC50” value (cell culture) of the same molecule?
Answer: >100 µM
